Assay results from ChEMBL document CHEMBL3885881, “DrugMatrix”.

Organism: Rattus norvegicus
Assay: DrugMatrix - Regimen: Daily Repeat
Type: toxicity, organism-based, Sprague-Dawley
Set-up: regimen Daily Repeat, gender Male, age 6-8 weeks
Settings: in vivo, po, route oral GAVAGE, […]; for ABSOLUTE BASOPHIL / ABSOLUTE EOSINOPHIL / ABSOLUTE LYMPHOCYTE / ABSOLUTE MONOCYTE / ABSOLUTE SEGMENTED NEUTROPHIL / BASOPHIL / EOSINOPHIL / ERYTHROCYTE COUNT / HEMATOCRIT / HEMOGLOBIN / LEUKOCYTE COUNT / LYMPHOCYTE / MEAN CORPUSCULAR HEMOGLOBIN / MEAN CORPUSCULAR HEMOGLOBIN CONCENTRATION / MEAN CORPUSCULAR VOLUME / MONOCYTE / NEUTROPHIL / NUCLEATED RED BLOOD CELLS / PLATELET COUNT: tissue Blood; for ALANINE AMINOTRANSFERASE / ALBUMIN / ALKALINE PHOSPHATASE / ASPARTATE AMINOTRANSFERASE / BLOOD UREA NITROGEN / CARBON DIOXIDE / CHLORIDE / CHOLESTEROL / CREATINE PHOSPHOKINASE / CREATININE / GLUCOSE / LACTATE DEHYDROGENASE / LIPASE / PHOSPHORUS / POTASSIUM / SODIUM / TOTAL BILIRUBIN / TOTAL PROTEIN / URIC ACID: tissue Plasma
[1] = 0 mg/kg, 72 h, dose level Control, time 3 day
[2] = 0 mg/kg, 120 h, dose level Control, time 5 day
[3] = 0 mg/kg, dose level Control, time 14 day
[4] = 1200 mg/kg, 72 h, dose level High, time 3 day
[5] = 1200 mg/kg, dose level High, time 14 day

CC[C@H](C)C(=O)O[C@H]1C[C@H](O)C=C2C=C[C@H](C)[C@H](CC[C@@H](O)C[C@@H](O)CC(=O)O)[C@H]21 [PRAVASTATIN]
ABSOLUTE BASOPHIL [1]: 0 CELLS/uL | ABSOLUTE EOSINOPHIL [1]: 14 CELLS/uL | ABSOLUTE LYMPHOCYTE [1]: 11144.67 CELLS/uL | ABSOLUTE MONOCYTE [1]: 22.5 CELLS/uL | ABSOLUTE SEGMENTED NEUTROPHIL [1]: 535.5 CELLS/uL | BASOPHIL [1]: 0% | EOSINOPHIL [1]: 0.17% | ERYTHROCYTE COUNT [1]: 5.08 x10E6/uL | HEMATOCRIT [1]: 32.32% | HEMOGLOBIN [1]: 12.87 G/DL | LEUKOCYTE COUNT [1]: 11.72 x10E3/uL | LYMPHOCYTE [1]: 94.67% | MEAN CORPUSCULAR HEMOGLOBIN [1]: 25.37 pg | MEAN CORPUSCULAR HEMOGLOBIN CONCENTRATION [1]: 39.85 G/DL | MEAN CORPUSCULAR VOLUME [1]: 63.58 fL | MONOCYTE [1]: 0.17% | NEUTROPHIL [1]: 5% | NUCLEATED RED BLOOD CELLS [1]: 0 /100WBC | PLATELET COUNT [1]: 1084 x10E3/uL | ALANINE AMINOTRANSFERASE [1]: 67.5 u/L | ALBUMIN [1]: 4.02 G/DL | ALKALINE PHOSPHATASE [1]: 374.17 u/L | ASPARTATE AMINOTRANSFERASE [1]: 83.5 u/L | BLOOD UREA NITROGEN [1]: 14.5 mg/dL | CARBON DIOXIDE [1]: 30 mmol/L | CHLORIDE [1]: 100.5 MEQ/L | CHOLESTEROL [1]: 71.33 mg/dL | CREATINE PHOSPHOKINASE [1]: 268.33 u/L | CREATININE [1]: 0.16 mg/dL | GLUCOSE [1]: 170.5 mg/dL | LACTATE DEHYDROGENASE [1]: 81.17 u/L | LIPASE [1]: 16.67 u/L | PHOSPHORUS [1]: 10.07 mg/dL | POTASSIUM [1]: 5.03 MEQ/L | SODIUM [1]: 142.92 MEQ/L | TOTAL BILIRUBIN [1]: 0.17 mg/dL | TOTAL PROTEIN [1]: 5.63 G/DL | URIC ACID [1]: 0.5 mg/dL | ABSOLUTE SEGMENTED NEUTROPHIL [2]: 646.83 CELLS/uL | NUCLEATED RED BLOOD CELLS [2]: 0.17 /100WBC | ABSOLUTE BASOPHIL [3]: 100 cells/µL | ABSOLUTE EOSINOPHIL [3]: 57.5 cells/µL | ABSOLUTE LYMPHOCYTE [3]: 11800 cells/µL | ABSOLUTE MONOCYTE [3]: 290 cells/µL | BASOPHIL [3]: 0.47% | EOSINOPHIL [3]: 0.41% | ERYTHROCYTE COUNT [3]: 7.31 x10E6/uL | HEMATOCRIT [3]: 46.8% | HEMOGLOBIN [3]: 14.69 G/DL | LEUKOCYTE COUNT [3]: 14.73 x10E3/uL | LYMPHOCYTE [3]: 80.94% | MEAN CORPUSCULAR HEMOGLOBIN [3]: 20.09 pg | MEAN CORPUSCULAR HEMOGLOBIN CONCENTRATION [3]: 31.41 G/DL | MEAN CORPUSCULAR VOLUME [3]: 64.03 fL | MONOCYTE [3]: 1.9% | NEUTROPHIL [3]: 15.1% | PLATELET COUNT [3]: 1273.62 x10E3/uL | ALANINE AMINOTRANSFERASE [3]: 56.75 u/L | ALBUMIN [3]: 3.84 G/DL | ALKALINE PHOSPHATASE [3]: 530.25 u/L | ASPARTATE AMINOTRANSFERASE [3]: 78.88 u/L | BLOOD UREA NITROGEN [3]: 12.25 mg/dL | CARBON DIOXIDE [3]: 41.38 mmol/L | CHLORIDE [3]: 102.38 MEQ/L | CHOLESTEROL [3]: 67.88 mg/dL | CREATINE PHOSPHOKINASE [3]: 297.25 u/L | CREATININE [3]: 0.61 mg/dL | GLUCOSE [3]: 161.88 mg/dL | LACTATE DEHYDROGENASE [3]: 161.38 u/L | LIPASE [3]: 16.75 u/L | PHOSPHORUS [3]: 10.13 mg/dL | POTASSIUM [3]: 6.73 MEQ/L | SODIUM [3]: 149 MEQ/L | TOTAL BILIRUBIN [3]: 0.29 mg/dL | TOTAL PROTEIN [3]: 6.73 G/DL | URIC ACID [3]: 1.14 mg/dL | ABSOLUTE BASOPHIL [4]: 0 CELLS/uL | BASOPHIL [4]: 0% | NUCLEATED RED BLOOD CELLS (1200 mg/kg, 120 h, dose level High, time 5 day): 0 /100WBC | ABSOLUTE BASOPHIL [5]: 66.7 cells/µL | ABSOLUTE EOSINOPHIL [5]: 80 cells/µL | ABSOLUTE LYMPHOCYTE [5]: 4950 cells/µL | ABSOLUTE MONOCYTE [5]: 1.18 CELLS/uL | BASOPHIL [5]: 0.33% | EOSINOPHIL [5]: 0.5% | ERYTHROCYTE COUNT [5]: 8.11 x10E6/uL | HEMATOCRIT [5]: 47.4% | HEMOGLOBIN [5]: 15.87 G/DL | LEUKOCYTE COUNT [5]: 17.97 x10E3/uL | LYMPHOCYTE [5]: 29.8% | MEAN CORPUSCULAR HEMOGLOBIN [5]: 19.53 pg | MEAN CORPUSCULAR HEMOGLOBIN CONCENTRATION [5]: 33.43 G/DL | MEAN CORPUSCULAR VOLUME [5]: 58.47 fL
